Measurements: patent US20220306695A1, “COMPSTATIN ANALOGUES AND THEIR MEDICAL USES” (priority 2019, published 2022)
Positions of bridges follow the written chain, without caps; N, C: chain ends. Non-standard residues stand in square brackets, D forms with d. Residues, ends and D or L forms follow the SMILES beside them. Trp(1-Me) = Cn1cc(C[C@H](N)C(=O)O)c2ccccc21; 1Nal = N[C@@H](Cc1cccc2ccccc12)C(=O)O; 2Nal = N[C@@H](Cc1ccc2ccccc2c1)C(=O)O; Sar = CNCC(=O)O

Key:
[1] = test system: classical complement pathway; test: In vitro haemolysis assay (inhibition of classical complement pathway); format: cell-based, human; conditions: Table 3; human serum, sensitized sheep red blood cells; read-out: IC50[nM], in vitro analysis of inhibition of hemolysis
Outline: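 Serially diluted compound (9 points) was preincubated 15 min at room temperature with diluted human serum, titrated per batch to give 70-90% maximal haemolysis, in Tris/casein buffer pH 7.4 with Mg2+/Ca2+. Antibody-sensitized sheep erythrocytes were then added for 30 min at 37° C, and the reaction was stopped with EDTA. Haemolysis was read at A405, with IC50 from 4PL fit.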

[2] = Solubility test at 10 mg/mL (visual inspection and light scattering); format: physicochemical; conditions: for Solubility, Condition 1 Acetate pH 4: 10 mg/mL compound in 100 mM acetate pH 4; for Solubility, Condition 2 Acetate pH 5: 10 mg/mL compound in 100 mM acetate pH 5; for Solubility, Condition 3 Phosphate pH 6: 10 mg/mL compound in 100 mM phosphate pH 6; for Solubility, Condition 4 Phosphate pH 7: 10 mg/mL compound in 100 mM phosphate pH 7; for Solubility, Condition 5 Phosphate pH 7.5: 10 mg/mL compound in 100 mM phosphate pH 7.5

Structure (SMILES)	IC50 [1] [nM]	Solubility, Condition 1 Acetate pH 4 [2]	Solubility, Condition 2 Acetate pH 5 [2]	Solubility, Condition 3 Phosphate pH 6 [2]	Solubility, Condition 4 Phosphate pH 7 [2]	Solubility, Condition 5 Phosphate pH 7.5 [2]
CC[C@H](C)[C@H](NC(=O)[C@H](C)NC(=O)[C@H](CO)NC(=O)CNC(=O)[C@H](CCC(=O)O)NC(C)=O)C(=O)N[C@H]1CSSC[C@@H](C(=O)N(C)CC(=O)N[C@@H](CCC(=O)O)C(N)=O)NC(=O)[C@H](CCCNC(=N)N)NC(=O)[C@H](Cc2c[nH]cn2)NC(=O)[C@H](CCC(=O)O)NC(=O)CNC(=O)[C@H](Cc2c[nH]c3ccccc23)NC(=O)[C@H](CC(=O)O)NC(=O)[C@H](CCC(N)=O)NC(=O)[C@H](Cc2ccc3ccccc3c2)NC(=O)[C@H]([C@@H](C)CC)NC1=O [Compound 50] (Ac-EGSAICI[2Nal]QDWGEHRC[Sar]E-NH2; disulfide 6-16)	< 100	− (denotes lack of solubility at the given condition, as UV absorbance at 340 nm exceeds 0.1 AU and/or it is visibly turbid or contains particles.)	− (denotes lack of solubility at the given condition, as UV absorbance at 340 nm exceeds 0.1 AU and/or it is visibly turbid or contains particles.)	+ (denotes solubility at the given condition, as determined by UV absorbance being less than 0.1 AU at 340 nm and the sample being clear when manually inspected.)	+ (denotes solubility at the given condition, as determined by UV absorbance being less than 0.1 AU at 340 nm and the sample being clear when manually inspected.)	+ (denotes solubility at the given condition, as determined by UV absorbance being less than 0.1 AU at 340 nm and the sample being clear when manually inspected.)
CC[C@H](C)[C@H](NC(C)=O)C(=O)N[C@H]1CSSC[C@@H](C(=O)N[C@H](C(=O)NCC(=O)N[C@@H](C)C(=O)N[C@@H](CCC(=O)O)C(=O)N[C@@H](CO)C(N)=O)[C@@H](C)O)NC(=O)[C@H](CCCNC(=N)N)NC(=O)[C@H](Cc2c[nH]cn2)NC(=O)[C@H](CCC(=O)O)NC(=O)CNC(=O)[C@H](Cc2c[nH]c3ccccc23)NC(=O)[C@H](CC(=O)O)NC(=O)[C@H](CCC(N)=O)NC(=O)[C@H](Cc2cn(C)c3ccccc23)NC(=O)[C@H]([C@@H](C)CC)NC1=O [Compound 51] (Ac-ICI[Trp(1-Me)]QDWGEHRCTGAES-NH2; disulfide 2-12)	< 100	− (denotes lack of solubility at the given condition, as UV absorbance at 340 nm exceeds 0.1 AU and/or it is visibly turbid or contains particles.)	− (denotes lack of solubility at the given condition, as UV absorbance at 340 nm exceeds 0.1 AU and/or it is visibly turbid or contains particles.)	+ (denotes solubility at the given condition, as determined by UV absorbance being less than 0.1 AU at 340 nm and the sample being clear when manually inspected.)	+ (denotes solubility at the given condition, as determined by UV absorbance being less than 0.1 AU at 340 nm and the sample being clear when manually inspected.)	+ (denotes solubility at the given condition, as determined by UV absorbance being less than 0.1 AU at 340 nm and the sample being clear when manually inspected.)
CC[C@H](C)[C@H](NC(C)=O)C(=O)N[C@H]1CSSC[C@@H](C(=O)N[C@H](C(=O)NCC(=O)N[C@@H](C)C(=O)N[C@@H](CCC(=O)O)C(=O)N[C@@H](CO)C(N)=O)[C@@H](C)O)NC(=O)[C@H](CCCNC(=N)N)NC(=O)[C@H](Cc2c[nH]cn2)NC(=O)[C@H](CCC(=O)O)NC(=O)CNC(=O)[C@H](Cc2c[nH]c3ccccc23)NC(=O)[C@H](CC(=O)O)NC(=O)[C@H](CCC(N)=O)NC(=O)[C@H](Cc2ccc3ccccc3c2)NC(=O)[C@H]([C@@H](C)CC)NC1=O [Compound 52] (Ac-ICI[2Nal]QDWGEHRCTGAES-NH2; disulfide 2-12)	< 100	− (denotes lack of solubility at the given condition, as UV absorbance at 340 nm exceeds 0.1 AU and/or it is visibly turbid or contains particles.)	− (denotes lack of solubility at the given condition, as UV absorbance at 340 nm exceeds 0.1 AU and/or it is visibly turbid or contains particles.)	+ (denotes solubility at the given condition, as determined by UV absorbance being less than 0.1 AU at 340 nm and the sample being clear when manually inspected.)	+ (denotes solubility at the given condition, as determined by UV absorbance being less than 0.1 AU at 340 nm and the sample being clear when manually inspected.)	+ (denotes solubility at the given condition, as determined by UV absorbance being less than 0.1 AU at 340 nm and the sample being clear when manually inspected.)
CC[C@H](C)[C@H](NC(=O)[C@H](C)NC(=O)[C@H](CO)NC(=O)CNC(=O)[C@H](CCC(=O)O)NC(C)=O)C(=O)N[C@H]1CSSC[C@@H](C(=O)N[C@H](C(=O)N[C@@H](CCC(=O)O)C(N)=O)[C@@H](C)O)NC(=O)[C@H](CCCNC(=N)N)NC(=O)[C@H](Cc2c[nH]cn2)NC(=O)[C@H](CCC(=O)O)NC(=O)CNC(=O)[C@H](Cc2c[nH]c3ccccc23)NC(=O)[C@H](CC(=O)O)NC(=O)[C@H](CCC(N)=O)NC(=O)[C@H](Cc2c[nH]c3ccccc23)NC(=O)[C@H]([C@@H](C)CC)NC1=O [Compound 55] (Ac-EGSAICIWQDWGEHRCTE-NH2; disulfide 6-16)	< 250	− (denotes lack of solubility at the given condition, as UV absorbance at 340 nm exceeds 0.1 AU and/or it is visibly turbid or contains particles.)	− (denotes lack of solubility at the given condition, as UV absorbance at 340 nm exceeds 0.1 AU and/or it is visibly turbid or contains particles.)	+ (denotes solubility at the given condition, as determined by UV absorbance being less than 0.1 AU at 340 nm and the sample being clear when manually inspected.)	+ (denotes solubility at the given condition, as determined by UV absorbance being less than 0.1 AU at 340 nm and the sample being clear when manually inspected.)	+ (denotes solubility at the given condition, as determined by UV absorbance being less than 0.1 AU at 340 nm and the sample being clear when manually inspected.)
CC[C@H](C)[C@@H]1NC(=O)[C@@H](NC(=O)[C@H](Cc2ccccc2)NC(=O)[C@H](C)NC(=O)[C@H](CO)NC(=O)CNC(=O)[C@H](CCC(=O)O)NC(C)=O)CSSC[C@@H](C(=O)N[C@H](C(=O)N[C@@H](CCC(=O)O)C(N)=O)[C@@H](C)O)NC(=O)[C@H](CCCNC(=N)N)NC(=O)[C@H](Cc2c[nH]cn2)NC(=O)[C@H](CCC(=O)O)NC(=O)CNC(=O)[C@H](Cc2c[nH]c3ccccc23)NC(=O)[C@H](CC(=O)O)NC(=O)[C@H](CCC(N)=O)NC(=O)[C@H](Cc2cccc3ccccc23)NC1=O [Compound 56] (Ac-EGSAFCI[1Nal]QDWGEHRCTE-NH2; disulfide 6-16)	< 100	− (denotes lack of solubility at the given condition, as UV absorbance at 340 nm exceeds 0.1 AU and/or it is visibly turbid or contains particles.)	− (denotes lack of solubility at the given condition, as UV absorbance at 340 nm exceeds 0.1 AU and/or it is visibly turbid or contains particles.)	+ (denotes solubility at the given condition, as determined by UV absorbance being less than 0.1 AU at 340 nm and the sample being clear when manually inspected.)	+ (denotes solubility at the given condition, as determined by UV absorbance being less than 0.1 AU at 340 nm and the sample being clear when manually inspected.)	+ (denotes solubility at the given condition, as determined by UV absorbance being less than 0.1 AU at 340 nm and the sample being clear when manually inspected.)
CC[C@H](C)[C@@H]1NC(=O)[C@@H](NC(=O)[C@H](Cc2ccccc2)NC(=O)[C@H](C)NC(=O)[C@H](CO)NC(=O)CNC(=O)[C@H](CCC(=O)O)NC(C)=O)CSSC[C@@H](C(=O)N[C@H](C(=O)N[C@@H](CCC(=O)O)C(N)=O)[C@@H](C)O)NC(=O)[C@H](CCCNC(=N)N)NC(=O)[C@H](Cc2c[nH]cn2)NC(=O)[C@H](CCC(=O)O)NC(=O)CNC(=O)[C@H](Cc2c[nH]c3ccccc23)NC(=O)[C@H](CC(=O)O)NC(=O)[C@H](CCC(N)=O)NC(=O)[C@H](Cc2cn(C)c3ccccc23)NC1=O [Compound 57] (Ac-EGSAFCI[Trp(1-Me)]QDWGEHRCTE-NH2; disulfide 6-16)	< 100	− (denotes lack of solubility at the given condition, as UV absorbance at 340 nm exceeds 0.1 AU and/or it is visibly turbid or contains particles.)	− (denotes lack of solubility at the given condition, as UV absorbance at 340 nm exceeds 0.1 AU and/or it is visibly turbid or contains particles.)	+ (denotes solubility at the given condition, as determined by UV absorbance being less than 0.1 AU at 340 nm and the sample being clear when manually inspected.)	+ (denotes solubility at the given condition, as determined by UV absorbance being less than 0.1 AU at 340 nm and the sample being clear when manually inspected.)	+ (denotes solubility at the given condition, as determined by UV absorbance being less than 0.1 AU at 340 nm and the sample being clear when manually inspected.)
